How the values were obtained:
[1] = system: 3T3-L1 cells; assay: Insulin-sensitizing activity in 3T3-L1 preadipocyte model, triglyceride accumulation as indication of cell differentiation; format: cell-based; conditions: for The Percentage of Triglyceride Increased in 3T3-L1 Cells: with IBMX, DEX and insulin, average of 3 pores (rosiglitazone n = 22, mean ± SD); for insulin-sensitizing activity: verbal summary of Table 2
Experimental: The insulin-sensitizing agents can promote the differentiation of pre-adipocytes toward adipocyte. Thus insulin-sensitizing agents could be identified with the insex of the differentiation of pre-adipocytes. Following the methods reported in the literature [Kletzein B F. Mol. Pharm. 1991, 41, 393], the insulin-sensitizing activities of the compounds of formula (I) of the present invention were evaluated in 3T3-L1 preadipocyte model with triglyceride accumulation in cells as the indication of cell differentiation.
The 3T3-L1 cells were incubated in DMEM (Dulbecco's Modified Eagle's Medium) containing 10% NBS (newborn calf serum) and subcultured every 3 days. The cells were transferred to 24-pore plates, and after the pores were filled completely, the cells were treated with IBMX (isobutylmethylxanthine) (0.5 mmol/L), DEX (dexamethasone) (1 μmol/L) and insulin (1.0 μmol/L) for 48 h, meanwhile different amounts of test compounds were added into. The cells were incubated continuously until the end of the experiment. Cells were collected and the contents of triglyceride and protein therein were determined by colorimetry. Enhancements of triglyceride in cells after drug-administrating were calculated.
The positive control group was rosiglitazone, and the solvent control group was a culturing medium containing 0.1% of DMSO. […] Thus, the derivatives of the benzopyran compounds of the present invention can be used to control the blood glucose level in type II diabetes patients and inhibit the occurrence of complications caused by the type II diabetes.

SMILES	The Percentage of Triglyceride Increased in 3T3-L1 Cells ([1]; test compound 0.01 μmol/L) [%]	The Percentage of Triglyceride Increased in 3T3-L1 Cells ([1]; test compound 0.1 μmol/L) [%]	The Percentage of Triglyceride Increased in 3T3-L1 Cells ([1]; test compound 1 μmol/L) [%]	melting point [°C]	insulin-sensitizing activity [1]
COC(=O)c1cc2ccc(OCc3ccccc3)cc2oc1=O [Compound 1, 7-benzyloxyl-2-oxo-2H-1-benzopyran-3-carboxylic acid methyl ester]	−5.73	−0.43	7.93	129 to 130	–
O=C(O)c1cc2ccc(OCc3ccccc3)cc2oc1=O [Compound 2, 7-benzyloxyl-2-oxo-2H-1-benzopyran-3-carboxylic acid]	20.86	18.31	14.63	–	–
COC(=O)c1cc2ccc(OCCc3ccccc3)cc2oc1=O [Compound 3, 7-(2-phenyl)ethoxyl-2-oxo-2H-1-benzopyran-3-carboxylic acid methyl ester]	4.57	−2.61	−5.50	100 to 101	–
CCc1ccc(CCOc2ccc3cc(C(=O)OC)c(=O)oc3c2)nc1 [Compound 4, 7-[2-(5-ethyl-2-pyridine)ethyoxyl]-2-oxo-2H-1-benzopyran-3-carboxylic acid methyl ester]	7.26	11.55	17.71	–	–
COC(=O)c1cc2ccc(OCCn3ccc4ccccc43)cc2oc1=O [Compound 5, 7-[2-(1-indole)ethoxyl]-2-oxo-2H-1-benzopyran-3-carboxylic acid methyl ester]	7.88	27.58	34.74	–	–
COC(=O)c1cc2ccc(OCCc3nc(-c4ccccc4)oc3C)cc2oc1=O [Compound 6, 7-[2-(5-methyl-2-phenyl-4-oxazole)ethoxyl]-2-oxo-2H-1-benzopyran-3-carboxylic acid methyl ester]	27.04	67.24	52.45	–	stronger insulin-sensitizing activity
O=C(O)c1cc2ccc(OCCc3ccccc3)cc2oc1=O [Compound 7, 7-(2-phenyl)ethoxyl-2-oxo-2H-1-benzopyran-3-carboxylic acid]	7.97	−1.10	−6.29	–	–
CCc1ccc(CCOc2ccc3cc(C(=O)O)c(=O)oc3c2)nc1 [Compound 8, 7-[2-(5-ethyl-2-pyridine)ethyoxyl]-2-oxo-2H-1-benzopyran-3-carboxylic acid]	12.25	3.67	5.66	–	–
O=C(O)c1cc2ccc(OCCn3ccc4ccccc43)cc2oc1=O [Compound 9, 7-[2-(1-indole)ethoxyl]-2-oxo-2H-1-benzopyran-3-carboxylic acid]	−5.25	−8.42	−12.95	–	–
Cc1oc(-c2ccccc2)nc1CCOc1ccc2cc(C(=O)O)c(=O)oc2c1 [Compound 10, 7-[2-(5-methyl-2-phenyl-4-oxazole)ethoxyl]-2-oxo-2H-1-benzopyran-3-carboxylic acid]	−3.28	26.68	32.30	–	–
COC(=O)C1Cc2ccc(OCCc3ccccc3)cc2OC1=O (centres unmarked) [Compound 11, 7-(2-phenyl)ethoxyl-3,4-dihydro-2-oxo-4H-1-benzopyran-3-carboxylic acid methyl ester]	−9.13	12.90	14.10	–	–
CCc1ccc(CCOc2ccc3c(c2)OC(=O)C(C(=O)OC)C3)nc1 (centres unmarked) [Compound 12, 7-[2-(5-ethyl-2-pyridine)ethyoxyl]-3,4-dihydro-2-oxo-4H-1-benzopyran-3-carboxylic acid methyl ester]	4.13	−2.40	2.53	–	–
COC(=O)C1Cc2ccc(OCCc3nc(-c4ccccc4)oc3C)cc2OC1=O (centres unmarked) [Compound 13, 7-[2-(5-methyl-2-phenyl-4-oxazole)ethoxyl]-3,4-dihydro-2-oxo-4H-1-benzopyran-3-carboxylic acid methyl ester]	28.33	52.92	64.69	–	stronger insulin-sensitizing activity
COC(=O)C1Cc2ccc(OCc3ccc(C(F)(F)F)cc3)cc2OC1=O (centres unmarked) [Compound 14, 7-(4-trifluoromethylbenzyloxyl)-3,4-dihydro-2-oxo-4H-1-benzopyran-3-carboxylic acid methyl ester]	19.33	−16.81	−2.69	–	–
COC(=O)c1cc2ccc(OCCN(C)C(=O)OC(C)(C)C)cc2oc1=O [Compound 15, 7-[2-(N-tert-butoxycarbonyl-N-methylamino)ethoxyl]-2-oxo-2H-1-benzopyran-3-carboxylic acid methyl ester]	26.38	26.73	44.70	128 to 129	–
COC(=O)C1Cc2ccc(OCCN(C)c3nc4ccccc4o3)cc2OC1=O (centres unmarked) [Compound 16, 7-[2-[N-methyl-N-(2-benzoxazole)amino]ethoxyl]-3,4-dihydro-2-oxo-4H-1-benzopyran-3-carboxylic acid methyl ester]	11.01	29.32	25.09	88 to 90	–
Cc1oc(-c2ccccc2)nc1CCOc1ccc2cc(C(=O)OC(C)(C)C)c(=O)oc2c1 [Compound 17, 7-[2-(5-methyl-2-phenyl-4-oxazole)ethoxyl]-2-oxo-2H-1-benzopyran-3-carboxylic acid tert-butyl ester]	18.33	28.20	33.01	–	stronger insulin-sensitizing activity
Cc1oc(-c2ccccc2)nc1CCOc1ccc2c(c1)OC(=O)C(C(=O)O)C2 (centres unmarked) [Compound 18, 7-[2-(5-methyl-2-phenyl-4-oxazole)ethoxyl]-3,4-dihydro-2-oxo-4H-1-benzopyran-3-carboxylic acid]	18.65	29.28	30.24	–	stronger insulin-sensitizing activity

From patent US7456205B2, “Benzopyran compounds, process for preparing the same and their use” (Shanghai Institute of Materia Medica, Chinese Academy of …, priority 2003, dated 2008)
